Results from patent US4264765A, “Salts of erythromycin A esters” (priority 1980, dated 1981).

Test system: Staph, Aureus (Smith)
Assay: standard test using mice infected with Staph, Aureus (Smith), subcutaneous treatment
Format: in vivo
Conditions: Staphylococcus aureus, sc, pH 7.4, read-out: CD 50, mice, subcutaneous, isotonic or pH 7.4 buffered aqueous solution; LD 50 column prints 100
Description: The above compounds were tested per their antibacterial uses in a standard test, using mice infected with Staph, Aureus (Smith). […] The compounds of the above examples were administered subcutaneously as isotonic solutions or aqueous solutions buffered to a pH of 7.4.

Point of comparison: `CCOC(=O)CCC(=O)O[C@H]1[C@H](O[C@@H]2[C@@H](C)[C@H](O[C@H]3C[C@@](C)(OC)[C@@H](O)[C@H](C)O3)[C@@H](C)C(=O)O[C@H](CC)[C@@](C)(O)[C@H](O)[C@@H](C)C(=O)[C@H](C)C[C@@]2(C)O)O[C@H](C)C[C@@H]1[N+](C)(C)COC(=O)CC` [Example 7, 2'-ethylsuccinyl-N-propionyloxymethyl erythromycin A iodide], ED50 24 mg/kg. Against it:
- CCOC(=O)CCC(=O)O[C@H]1[C@H](O[C@@H]2[C@@H](C)[C@H](O[C@H]3C[C@@](C)(OC)[C@@H](O)[C@H](C)O3)[C@@H](C)C(=O)O[C@H](CC)[C@@](C)(O)[C@H](O)[C@@H](C)C(=O)[C@H](C)C[C@@]2(C)O)O[C@H](C)C[C@@H]1[N+](C)(C)COC(=O)c1ccccc1 [Example 5, 2'-ethylsuccinyl-N-benzoyloxymethyl erythromycin A iodide] — 2.2-fold higher, 52 mg/kg

Same assay, conditions: Staphylococcus aureus, sc, pH 7.4, read-out: CD 50, mice, subcutaneous, isotonic or pH 7.4 buffered aqueous solution; inoculation (a): LD50 of 10-100

Point of comparison: `CC[C@H]1OC(=O)[C@H](C)[C@@H](O[C@H]2C[C@@](C)(OC)[C@@H](O)[C@H](C)O2)[C@H](C)[C@@H](O[C@@H]2O[C@H](C)C[C@H]([N+](C)(C)COC(=O)C(C)(C)C)[C@H]2OC(=O)CCC(=O)O)[C@](C)(O)C[C@@H](C)C(=O)[C@H](C)[C@@H](O)[C@]1(C)O` [Example 10, 2'-succinyl-N-pivalyloxymethyl erythromycin A chloride], ED50 37 mg/kg. Against it:
- CCOC(=O)CCC(=O)O[C@H]1[C@H](O[C@@H]2[C@@H](C)[C@H](O[C@H]3C[C@@](C)(OC)[C@@H](O)[C@H](C)O3)[C@@H](C)C(=O)O[C@H](CC)[C@@](C)(O)[C@H](O)[C@@H](C)C(=O)[C@H](C)C[C@@]2(C)O)O[C@H](C)C[C@@H]1[N+](C)(C)COC(=O)C(C)(C)C [Example 3, 2'-ethylsuccinyl-N-pivalyloxymethyl erythromycin A chloride] — 1.6-fold higher, 58 mg/kg
- CCOC(=O)CCC(=O)O[C@H]1[C@H](O[C@@H]2[C@@H](C)[C@H](O[C@H]3C[C@@](C)(OC)[C@@H](O)[C@H](C)O3)[C@@H](C)C(=O)O[C@H](CC)[C@@](C)(O)[C@H](O)[C@@H](C)C(=O)[C@H](C)C[C@@]2(C)O)O[C@H](C)C[C@@H]1[N+](C)(C)COC(=O)CCCCCC(=O)O [Example 14, 2'-ethylsuccinyl-N-pimelyloxymethyl erythromycin chloride] — within 1.5-fold, 47 mg/kg
- CCC(=O)O[C@H]1[C@H](O[C@@H]2[C@@H](C)[C@H](O[C@H]3C[C@@](C)(OC)[C@@H](O)[C@H](C)O3)[C@@H](C)C(=O)O[C@H](CC)[C@@](C)(O)[C@H](O)[C@@H](C)C(=O)[C@H](C)C[C@@]2(C)O)O[C@H](C)C[C@@H]1[N+](C)(C)COC(=O)C(C)(C)C [Example 1, 2'-propionyl-N-pivalyloxymethylerythromycin A iodide] — 2.4-fold higher, 88 mg/kg

Same assay, conditions: Staphylococcus aureus, sc, pH 7.4, read-out: CD 50, mice, subcutaneous, isotonic or pH 7.4 buffered aqueous solution; inoculation (b): LD50 of 100-1000

Point of comparison: `CCC(=O)O[C@H]1[C@H](O[C@@H]2[C@@H](C)[C@H](O[C@H]3C[C@@](C)(OC)[C@@H](O)[C@H](C)O3)[C@@H](C)C(=O)O[C@H](CC)[C@@](C)(O)[C@H](O)[C@@H](C)C(=O)[C@H](C)C[C@@]2(C)O)O[C@H](C)C[C@@H]1[N+](C)(C)COC(=O)c1ccccc1` [Example 4, 2'-propionyl-N-benzoyloxymethyl erythromycin A chloride], ED50 40 mg/kg. Against it:
- CC[C@H]1OC(=O)[C@H](C)[C@@H](O[C@H]2C[C@@](C)(OC)[C@@H](O)[C@H](C)O2)[C@H](C)[C@@H](O[C@@H]2O[C@H](C)C[C@H]([N+](C)(C)COC(=O)C(C)(C)C)[C@H]2OC(=O)CCCC(=O)O)[C@](C)(O)C[C@@H](C)C(=O)[C@H](C)[C@@H](O)[C@]1(C)O [Example 12, 2'-glutaryl-N-pivalyloxymethyl erythromycin A chloride] — 1.8-fold higher, 73 mg/kg
- CCOC(=O)CCC(=O)O[C@H]1[C@H](O[C@@H]2[C@@H](C)[C@H](O[C@H]3C[C@@](C)(OC)[C@@H](O)[C@H](C)O3)[C@@H](C)C(=O)O[C@H](CC)[C@@](C)(O)[C@H](O)[C@@H](C)C(=O)[C@H](C)C[C@@]2(C)O)O[C@H](C)C[C@@H]1[N+](C)(C)COC(=O)C(C)(C)C [Example 2, 2'-ethylsuccinyl-N-pivalyloxymethylerythromycin A iodide] — 3.6-fold higher, 143 mg/kg
